Source: PMC3601177 (Oncoimmunology, 2013)
Counter-ions that a name gives are not always drawn.

What was measured:
[1] = Pharmacokinetics of IM and CGP74588 in patient plasma; assay type: in vivo, human; conditions: for increase of AUC (0–24 h) at D14 versus D10 / increase of Cmax at D14 versus D10: after IL-2 co-administration D10-D14, IM 400 mg/day; for AUC(0-inf): human, plasma
[2] = tested on: lymphocytes, neutrophils and platelets; test: Blood cell counts during treatment; assay type: in vivo, human; conditions: between D1 and D10, IM alone
[3] = tested on: GIST with KIT exon 11 mutations; conditions: cited from earlier work

Cc1ccc(NC(=O)c2ccc(CN3CCNCC3)cc2)cc1Nc1nccc(-c2cccnc2)n1 [CGP74588, N-desmethyl-imatinib]
accumulation ratio (D10 to D1 trough concentration ratio) ([1]; IM 400 mg/day, mean ± SD): 1.93 ± 0.69
increase of AUC (0–24 h) at D14 versus D10 [1]: 61%
increase of Cmax at D14 versus D10 [1]: 49%
AUC (0–24h) ([1]; patient #8, IL-2 dose level III, no toxicity): 13400 ng·h/mL
AUC (0–24h) ([1]; patient #10, IL-2 dose level III, grade 3 systemic capillary leak syndrome): 25100 ng·h/mL

Cc1ccc(NC(=O)c2ccc(CN3CCN(C)CC3)cc2)cc1Nc1nccc(-c2cccnc2)n1 [IM, imatinib mesylate]
increase of AUC (0–24 h) at D14 versus D10 [1]: 61%
increase of Cmax at D14 versus D10 [1]: 49%
AUC(0-inf) ([1]; im, 400 mg/day): 64100 ng·h/mL
AUC(0-inf) ([1]; oral, 400 mg): 39700 ng·h/mL
lymphocyte, neutrophil or platelet counts [2]: no significant modifications
median OS [3]: 60 mo
median time to progression [3]: 27.2 mo
